Biological target: T1, human Z A1AT (Homo sapiens, UniProt P01009, E366K)
T1 construct: expressed in transfected cells; host or cells: HEK-Z cells (human embryonic kidney cell line stably transfected with the human Z A1AT gene)
Assay: A1AT cell secretion assay using HEK-Z cells (A1AT ELISA of supernatants)
Format: cell-based
Settings: 48 h, supernatant A1AT by ELISA
Method: HEK-Z cells, a human embryonic kidney cell line stably transfected with the human Z A1AT gene, were plated into 96 well plates (3.0×10^5 cells/ml with 200 μl of media/well) overnight at 37° C. in a humidified atmosphere containing 5% CO2. Following incubation cells were washed with 200 μl serum-free media three times and media was replaced with treatments in quadruplicate using serum free media containing either vehicle, 10 μM suberanilohydroxamic acid (SAHA) or a compound of the invention (at concentrations of 10, 33, 100 and 333 nM) for 48 h in a 37° C. incubator in a final volume of 200 μl. At the end of the incubation step the supernatants were removed from the wells, centrifuged at 1000×g at 4° C. for 10 min and were assayed for human A1AT levels by ELISA (Human Serpin A1/α1-antitrypsin duo set ELISA, R& D Systems, DY1268) per manufacturer's instructions.
Briefly, a 96 well plate was coated with human A1AT capture antibody overnight at room temperature (1:180 dilution from stock, 100 μl final volume/well). The capture antibody was then removed and wells washed three times with 300 μl wash buffer (0.05% Tween 20 in PBS) and then 200 μl reagent diluent ([…]) was incubated in each well for 1 h at room temperature. Diluted samples, standards (125, 250, 500, 1000, 2000, 4000 and 8000 pg/ml A1AT) or blanks were then added to each well in duplicate and the plates were covered with a plate sealer and left at room temperature for 2 h. At the end of the sample incubation step, samples were removed and all wells washed as previously and 100 μl detection antibody (1:180 dilution from stock) was added to each well and incubated for a further 2 h at room temperature. Following incubation with detection antibody, supernatant was removed and wells were washed as previously and 100 μl streptavidin-HRP solution (1:200 dilution from stock) was added to each well for 20 min in the dark. After which, 50 μl stop solution (2M H2SO4) was added and optical density (OD) of each well was read at 450 nm with 570 nm blank subtracted from each well using a microplate reader. A 4 parameter logistic curve was constructed using GraphPad Prism 7 and A1AT concentrations were determined in each sample by interpolation from a standard curve and multiplying by the appropriate dilution factor.

T1 sequence (P01009 25-418 E366K): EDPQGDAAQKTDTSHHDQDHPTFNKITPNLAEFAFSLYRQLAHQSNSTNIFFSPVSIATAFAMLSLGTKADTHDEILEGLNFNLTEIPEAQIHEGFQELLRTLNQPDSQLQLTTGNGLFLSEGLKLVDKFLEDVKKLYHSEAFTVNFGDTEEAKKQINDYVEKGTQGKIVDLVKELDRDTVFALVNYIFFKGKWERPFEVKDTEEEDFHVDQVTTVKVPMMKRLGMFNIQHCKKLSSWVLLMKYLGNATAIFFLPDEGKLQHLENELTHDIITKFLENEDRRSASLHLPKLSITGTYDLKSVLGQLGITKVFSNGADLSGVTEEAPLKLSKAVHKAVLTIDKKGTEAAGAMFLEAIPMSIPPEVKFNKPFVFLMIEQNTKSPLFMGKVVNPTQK

Compared with `CC(C)N(C)C(=O)c1ccc(Cn2ccccc2=O)cc1` [Example 3, N-isopropyl-N-methyl-4-((2-oxopyridin-1(2H)-yl)methyl)benzamide], `CN(C)C(=O)c1ccc(Cn2ccccc2=O)cc1` [Example 1, N,N-dimethyl-4-((2-oxopyridin-1(2H)-yl)methyl)benzamide] is lower in “Median A1AT % increase over vehicle at 300 nM” value (“Median A1AT % increase” below): 134% for the first, 125% for the second.

Compared with `CN(Cc1ccccc1)C(=O)c1ccc(Cn2ccccc2=O)cc1` [Example 4, N-benzyl-N-methyl-4-((2-oxopyridin-1(2H)-yl)methyl)benzamide], `CCN(C)C(=O)c1ccc(Cn2ccccc2=O)cc1` [Example 2, N-ethyl-N-methyl-4-((2-oxopyridin-1(2H)-yl)methyl)benzamide] is higher in “Median A1AT % increase” value: 142% for the first, 147% for the second.

With `CN(CC(F)(F)F)C(=O)c1ccc(Cn2ccccc2=O)cc1` [Example 5, N-methyl-4-((2-oxopyridin-1(2H)-yl)methyl)-N-(2,2,2-trifluoroethyl)benzamide] the “Median A1AT % increase” value was 129%.

Reference: US12286402B2, “Compounds and their use for the treatment of alpha1-antitrypsin deficiency” (CENTESSA PHARMACEUTICALS (UK) LIMITED, priority 2019, dated 2025)
